Several values for one entry are separate records, joined by “and”; a condition that tells them apart may be missing. Equal values may be shown once. Read-outs that look alike come from different tables or passages of the source.
What was measured:
MCF-7 cells = experiment: Wound healing / gap closure migration assay, MCF-7; format: cell-based, human; settings: 2 h treatment; for wound closure, replications r1-r3: listed as HPbCD
Procedure: (§1) Cells were cultured in 24-well culture plates (Cytoselect CBA-120, 0.9 mm wound healing/gap closure migration assay) for 24 h with wound healing insert in place.
(§2) Protocol: Warm up the 24-well plate (CBA-120, Cell BioLabs Inc.) with 0.9 mm CytoSelect Wound Healing Inserts at room temperature for 10 minutes. Using sterile forceps, orient the desired number of inserts in the plate wells with their “wound field” aligned in the same direction. Create a cell suspension containing 0.5-1.0×10^6 cells/ml in media containing 10% fetal bovine serum (FBS). Add 500 μL of cell suspension to each well by carefully inserting the pipette tip through the open end at the top of the insert. For optimal cell dispersion, add 250 μL of cell suspension to either side of the open ends at the top of the insert. Incubate cells in a cell culture incubator for 12-24 hours. Carefully remove the insert from the well to begin the wound healing assay. Use sterile forceps to grab and lift the insert slowly from the plate well. Slowly aspirate and discard the media from the wells. Wash wells with media to remove dead cells and debris. Finally, add media to wells to keep cells hydrated. Repeat wash if wells still have debris or unattached cells. When washing is complete, add media with FBS and/or compounds to continue cell culture and wound healing process. Agents that inhibit or stimulate cell migration can be added directly to the wells. Incubate cells in a cell culture incubator (2 hours) and then wash cells with PBS and then add fresh media without compounds. Incubate 12-24 hours before wash and fixing. Remove the fixation solution and add 400 μL of Cell Stain Solution to each well. Allow the stain to incubate with the cells for 15 minutes at room temperature. Aspirate and discard the solution. Carefully wash each stained well 3× with deionized water. Discard washes and allow cells to dry at room temperature. Cells that migrated into the wounded area or protruded from the border of the wound were visualized and photographed under an inverted microscope. Determine the surface area of the defined wound area: Total Surface Area=0.9 mm x length. Determine the surface area of the migrated cells into the wound area: Migrated Cell Surface Area=length of cell migration (mm)×2×length. Percent Closure (%)=Migrated Cell Surface Area/Total Surface Area x 100.

MDA-MB-231 cells = experiment: Wound healing / gap closure migration assay, MDA-MB-231; format: cell-based, human; settings: 2 h treatment; for wound closure, replications r1-r3: listed as HPbCD
Procedure: Published results have shown that β-CD inhibits human MDA-MB 231 cell migration. See Translational Medicine Communications, 1 (1), 3. This inhibition was attributed to the ability of β-CD to “deplete cholesterol”. β-CD, however, depletes also phospholipids.
as §1, §2

[1] = Table 3; cited from earlier work
[2] = cited from earlier work
[3] = in vivo; cited from earlier work
BBB [4] = settings: cited from earlier work
BBB [5] = settings: cited from earlier work; for Transport across BBB: 2 h, 1 mM
rats [6] = settings: cited from earlier work
[7] = cited from earlier work; remark: listed apart in the source
[8] = tested on: unesterified cholesterol (UC) storage; settings: 3-week-old Npc1-/- mice, dorsal neocortex, filipin; cited from earlier work
cats = settings: doses of 4-8 g/kg; cited from earlier work
[9] = mice, cats, and one human; cited from earlier work
[10] = cited from earlier work; remark: listed apart in the source
Aβ42 = settings: SwN2a cells; persistent for 24 h after withdrawal; cited from earlier work
leukemia = leukemia mouse models; cited from earlier work
Tg19959 mice [11] = settings: four months subcutaneous; cited from earlier work
Tg19959 mice [12] = settings: four months subcutaneous; cited from earlier work; remark: listed apart in the source
HeLa/TFEB cells = settings: cited from earlier work
LINCL fibroblasts = settings: dose- and time-dependent; cited from earlier work
a-syn aggregates = settings: neuroglioma cells, via autophagy; cited from earlier work
[13] = rats, suppositories containing triglycerides (Witepsol H5); cited from earlier work
membrane cholesterol = settings: SwN2a cells; cited from earlier work
rats [14] = settings: cited from earlier work; remark: listed apart in the source
human keratinocytes = settings: cited from earlier work
Caco-2 monolayers = settings: cited from earlier work; for equally effective concentration on paracellular permeability: after 40 min
NPC cells = settings: cited from earlier work
[15] = mice with spinobulbar muscular atrophy (SBMA); cited from earlier work
Caco-2 cells = settings: cited from earlier work
Aβ1-40/42 = settings: rats, stereotactical injection into the hippocampus; cited from earlier work
erythrocytes = settings: cited from earlier work
transferrin endocytosis = settings: 10 mM; cited from earlier work
rats [16] = settings: […] daily; cited from earlier work

Molecule: 2-hydroxypropyl-β-cyclodextrin [HP-β-CD]
- average wound closure (avg) (MCF-7 cells; MCF-7, 1 mM): 73.33%
- wound closure, replications r1-r3 (MCF-7 cells; MCF-7, 1 mM): 68.00% and 74.00% and 78.00%
- average wound closure (avg) (MCF-7 cells; MCF-7, 2 mM): 48.33%
- wound closure, replications r1-r3 (MCF-7 cells; MCF-7, 2 mM): 41.00% and 48.00% and 56.00%
- average wound closure (avg) (MCF-7 cells; MCF-7, 4 mM): 33.67%
- wound closure, replications r1-r3 (MCF-7 cells; MCF-7, 4 mM): 32.00% and 28.00% and 41.00%
- average wound closure (avg) (MDA-MB-231 cells; MDA-MB-231, 1 mM): 67.67%
- wound closure, replications r1-r3 (MDA-MB-231 cells; MDA-MB-231, 1 mM): 62.00% and 68.00% and 73.00%
- average wound closure (avg) (MDA-MB-231 cells; MDA-MB-231, 2 mM): 56.00%
- wound closure, replications r1-r3 (MDA-MB-231 cells; MDA-MB-231, 2 mM): 48.00% and 59.00% and 61.00%
- average wound closure (avg) (MDA-MB-231 cells; MDA-MB-231, 4 mM): 39.00%
- wound closure, replications r1-r3 (MDA-MB-231 cells; MDA-MB-231, 4 mM): 48.00% and 44.00% and 25.00%
- Solubility in water [1]: >600 mg/mL
- oral absorption in rats [2]: ≤3%
- half-life (t1/2) [3]: 1.7 to 1.9 h
- vol. of distribution (VD) [3]: 0.2 L/kg
- BBB breakdown (BBB [4]): 2.5 mM
- toxicity on BBB in vitro (BBB [4]): similar
- Transport across BBB (BBB [5]): 9.3%
- effect of 1 g/kg in rats (rats [6]): did not cause adverse clinical signs
- tolerability ([7]; children with NPC, doses of up to 1000 mg/kg/d): well tolerated
- side effects ([7]; two children with NPC, about 2500 mg/kg bi-weekly (≈700 mg/kg/d), over a year): no discernable side effects
- UC storage in brain cells [8]: highly effective reduction
- ototoxicity (cats): permanent hearing loss
- ototoxicity [9]: risk of causing permanent hearing loss
- bone mineral density (BMD) ([10]; long-term parenteral administration, 200 mg/kg): decrease bone mineral density
- levels of Aβ42 (Aβ42): dramatically lowered
- survival (leukemia): prolonged survival
- spatial learning and memory deficits (Tg19959 mice [11]): significantly improved
- Aβ plaque deposition (Tg19959 mice [12]): diminished
- tau immunoreactive dystrophic neurites (DN) (Tg19959 mice [12]): reduced
- expression of LC3, SQSTM1/p62 and BECN1 (HeLa/TFEB cells): up-regulated
- ceroid lipopigment (LINCL fibroblasts): clearance of ceroid lipopigment
- a-syn aggregates (a-syn aggregates): promoted clearance
- absorption, administered rectally [13]: 26%
- level of membrane cholesterol (membrane cholesterol): reduced
- acute i.v. toxicity in rats (rats [14]): 10 g/kg
- apoptotic cell death (human keratinocytes; human keratinocytes): not apoptotic

Molecule: CCCCCCCCCC(=O)O [C10, Capric acid]
- equally effective concentration on paracellular permeability (Caco-2 monolayers): 13 mM

Molecule: OC[C@H]1O[C@@H]2O[C@H]3[C@H](O)[C@@H](O)[C@@H](O[C@H]4[C@H](O)[C@@H](O)[C@@H](O[C@H]5[C@H](O)[C@@H](O)[C@@H](O[C@H]6[C@H](O)[C@@H](O)[C@@H](O[C@H]7[C@H](O)[C@@H](O)[C@@H](O[C@H]8[C@H](O)[C@@H](O)[C@@H](O[C@H]9[C@H](O)[C@@H](O)[C@@H](O[C@H]1[C@H](O)[C@H]2O)O[C@@H]9CO)O[C@@H]8CO)O[C@@H]7CO)O[C@@H]6CO)O[C@@H]5CO)O[C@@H]4CO)O[C@@H]3CO [γ-CD, gamma-cyclodextrin]
- cholesterol accumulation (NPC cells): can reduce cholesterol accumulation

Molecule: alendronate-β-CD [ALN-β-CD]
- effect on bone ([10]; rat, in vivo): bone-anabolic

Molecule: C[C@@]12C[C@@]3(O)O[C@@H](O1)[C@]1(COC(=O)c4ccccc4)[C@H]3C[C@@]12O[C@@H]1O[C@H](CO)[C@@H](O)[C@H](O)[C@H]1O [paeoniflorin]
- disease phenotype [15]: mitigates the disease phenotype

Molecule: CCCCCCCCCCCC(=O)O [C12, lauric acid]
- tight junction morphology (Caco-2 monolayers; Caco-2 monolayers): did not induce detectable changes
- equally effective concentration on paracellular permeability (Caco-2 monolayers): 0.75 mM

Molecule: CN1CCCC1c1cccnc1 (stereo not drawn) [nicotine]
- transported through the BBB (BBB [5]; in vitro, after 2 h of incubation): 96%

Molecule: maltosyl-α-CD
- cytotoxicity (Caco-2 cells): less cytotoxic than α-CD

Molecule: OC[C@H]1O[C@@H]2O[C@H]3[C@H](O)[C@@H](O)[C@@H](O[C@H]4[C@H](O)[C@@H](O)[C@@H](O[C@H]5[C@H](O)[C@@H](O)[C@@H](O[C@H]6[C@H](O)[C@@H](O)[C@@H](O[C@H]7[C@H](O)[C@@H](O)[C@@H](O[C@H]8[C@H](O)[C@@H](O)[C@@H](O[C@H]1[C@H](O)[C@H]2O)O[C@@H]8CO)O[C@@H]7CO)O[C@@H]6CO)O[C@@H]5CO)O[C@@H]4CO)O[C@@H]3CO [β-CD, beta-cyclodextrin]
- BBB breakdown (BBB [4]): 2.5 mM
- toxicity on BBB in vitro (BBB [4]): similar
- Transport across BBB (BBB [5]): 26.7%
- Toxicity of Aβ1-40/42 (Aβ1-40/42): reduced
- cholesterol released (erythrocytes; 10 mM): 95%
- extraction of cholesterol (erythrocytes; erythrocytes): most effectively
- reduction of transferrin endocytosis (transferrin endocytosis): 80%
- cholesterol accumulation (NPC cells): can reduce cholesterol accumulation
- deaths, daily doses s.c. (rats [16]): no deaths
- acute i.v. toxicity in rats (rats [14]): 1 g/kg
- apoptotic cell death (human keratinocytes): induces caspase-dependent apoptotic cell death

Source: US20230130066A1, “USE OF CYCLODEXTRINS IN DISEASES AND DISORDERS INVOLVING PHOSPHOLIPID DYSREGULATION” (priority 2017, published 2023)
